Experimental data published in patent US10059708B2, “Therapeutic targeting of the interleukin 1 receptor-associated kinase 4 (IRAK4) in leukemias characterized by rearrangements in the mixed lineage leukemia gene (MLL-r)” (Northwestern University, priority 2016, dated 2018).
“Also recorded” adds a separate entry of the source.

What was measured:
endogenous MLL protein = assay: MLL protein levels / stability in HEK293 cells (western blotting, cycloheximide chase); format: cell-based, human; parameters: dose or concentration left out as unconfirmed; conditions: for indicated times or different concentrations for 24 hr, relative to DMSO
MLL-UBE2O interaction = MLL-UBE2O interaction (HaloTag purification, MudPIT, co-immunoprecipitation); format: cell-based, human; parameters: dose or concentration left out as unconfirmed; conditions: Halo-MLL-Inter-transfected HEK293 cells
Protocol: (§1) FIG. 3. […] (D) Halo-MLL-Inter-transfected HEK293 cells were treated with […]/4 inhibitor for 24 hr, purified with HaloLink resin, and subjected to MudPIT analysis. […] Each row represents a peak of MLL occupancy (n=6,250), with rows ordered by decreasing MLL occupancy in the inhibitor-treated condition. […] Boxplots depict the read coverage for all MLL peaks. The p value was calculated with the Wilcoxon signed-rank test. See also FIG. 10.

SEM and REH cells = assay: Total RNA-seq, SEM versus REH cells; format: cell-based, human; conditions: 2 days of treatment
Protocol: Total RNA Sequencing. […] Total RNA was extracted from Trizol according to the manufacturer's instructions. The RNA was treated with DNase I (NEB) and cleaned with the QIAGEN RNeasy mini kit. 500 ng RNA was used for library preparation with TruSeq Stranded Total RNA with Ribo-Zero Gold kit (Illumina, RS-123-2201). The sequenced reads were aligned to the human genome (UCSC hgl9) with TopHat 2.1.0 using gene annotations from Ensembl 72. Differential gene expression was performed with EdgeR (Empirical analysis of digital gene expression data in R) version 3.08 (Robinson et al., 2010). Adjusted p values were computed using the Benjamini-Hochburg method. […] P values for Venn diagrams were performed with the hypergeometric test.

REH cells = assay: REH cell proliferation (trypan blue, Vi-CELL XR); format: cell-based, human; conditions: IRAK1/4 inhibitor
Protocol: FIG. 4. […] Viable cells were seeded at 0.2 million/mL, and they were monitored by trypan blue exclusion staining and counted using a Vi-CELL XR cell counter. Data are represented as mean±SD (n=3). […] Data are represented as mean±SD (n=3). (C) Venn diagram of deregulated genes in SEM cells by IRAK1/4 and IRAK4 inhibitors. […] (D) Venn diagram of deregulated genes in SEM and REH cells by both inhibitors. Little overlap was observed between REH and SEM cells. […] Each cluster is represented by different colors and a circle node represents each enriched term. (G) UBE2O depletion and IRAK inhibition affect a common subset of genes in SEM cells. […] Heatmaps represent Z score-normalized values. See also FIG. 11.
Stabilization of MLL through IRAK Inhibition and UBE2O Depletion Regulates a Specific Gene Regulatory Network in MLL Leukemia. To measure the consequence of stabilizing MLL in MLL leukemia cells, we determined the effects of IRAK inhibition on cell proliferation of REH (MLL-germline leukemia) and SEM (MLL-AFF1) cells. Both of these cell lines are derived from precursor B cell ALL patient blast cells, and, therefore, they have been studied when comparing non-MLL (REH) and MLL-dependent (SEM) leukemia gene expression (Guenther et al., 2008).

MLL-AF9 leukemia = assay: Murine MLL-AF9 leukemia transplantation model; format: in vivo, C57BL/6 mice; conditions: treatment from day 10 after transplantation; IRAK1/4 inhibitor 8 mg/kg, IRAK4 inhibitor 75 mg/kg i.p. every other day; vehicle mice all dead by 31 days
Description: After transformation of MLL-AF9, c-Kit+ HSPCs were transplanted into lethally irradiated C57BL/6 mice with 1 3 106 transformed cells and 2 3 105 support cells. Leukemia cells from primary AML mice were isolated and transplanted into sublethally irradiated C57BL/6 mice. Drug treatments were started at day 10 or 19 after transplantation. (B) Kaplan-Meier survival curves of secondary transplanted C57BL/6 mice after vehicle and IRAK1/4 or IRAK4 inhibitor treatment at day 19 (blast phase). Vehicle or IRAK inhibitors were administered every other day by intraperitoneal injection for a total of five treatments. Leukemia was confirmed at the endpoint for each transplant mouse. […] The p values were calculated using the log rank test. […] The p values were calculated using the log rank test. […]
We further assessed the effects of the IRAK inhibitors in vivo using the murine MLL-AF9 leukemia transplantation model (FIG. 7A) (Volk et al., 2014). […]
Murine MLL-AF9 Leukemia Model. […] The mice were monitored for signs of acute leukemia for 2-3 months and euthanized when leukemia was evident (weight loss below 16.75 g, reduced mobility, malaise, palpable spleen, and hunched back). […]
Animal Treatment. […] Mice were monitored for leukemia development and leukemia was verified after the mice were sacrificed upon signs of illness (weight loss below 16.75 g, partial paralysis, malaise, palpable spleen, and hunched back).

MLL occupancy = assay: MLL ChIP-seq in HEK293 cells; format: cell-based, human
Protocol: as §1
FIG. 10. […] Occupancy in reads per million (rpm)±3 kb around the center of peak is shown (N=6250). Genes are ordered by MLL occupancy in the inhibitor treatment. […] The read counts of all the MLL peaks were plotted and the Wilcoxon signed-rank test was used to calculate the p value (F).
Chromatin Immunoprecipitation Sequencing. […] ChIP-seq reads were aligned to the mouse (UCSC mm9) or human genome (UCSC hg19). Alignments were processed with Bowtie version 1.1.2, allowing only uniquely mapping reads with up to two mismatches within the 50 bp read. The resulting reads were extended to 150 bases toward the interior of the sequenced fragment and normalized to total reads aligned (reads per million, rpm). […] The average coverage (calculated using rpm tracks described above) across the entire region is shown in the boxplots where p values were calculated with the Wilcoxon signed-rank test. […]

MDS and T-ALL cells = conditions: subset of MDS and T-ALL cells with high expression of IRAK1; cited from earlier work
SEM cells = assay: RNA-seq gene expression profiles of SEM cells, new versus commercial IRAK inhibitors; format: cell-based, human; conditions: 3 days
Description: FIG. 17. Comparison of novel IRAK4 inhibitors (NUCC numbers) with commercially available IRAK inhibitors (referred to here as IRAK1/4 and IRAK4) on gene expression in leukemia cells as determined by RNA-seq. SEM cells were maintained in IMDM medium with 10% FBS. […] SEM cells were harvested and used for total RNA-seq. A: PCA plot of each group with different treatments. […] B: Distance plot of each group with the indicated treatments.
The gene expression profiles of SEM cells treated with newly synthesized compound NUCC0200554 (Compound 16 of Example 2) and compound NUCC0200618 (Compound 21 of Example 2) as follows. After inhibitor treatment for 3 days, SEM cells were collected and lysed with Trizol reagent. Total RNA was extracted from Trizol according to the manufacturer's instructions. The RNA was treated with DNase I (NEB) and cleaned with the Qiagen RNeasy mini kit. 500 ng RNA was used for library preparation with TruSeq Stranded Total RNA with Ribo-Zero Gold kit (Illumina, RS-123-2201). The sequenced reads were aligned to the human genome (UCSC hgl9) with TopHat 2.1.0 using gene annotations from Ensembl 72. Differential gene expression was performed with Deseq2.

Human IRAK4 = molecular target: T1, Human IRAK4 (Homo sapiens, UniProt Q9NWZ3); assay: IRAK4 kinase inhibition assay (ADP-Glo); format: biochemical; conditions: for Inhibition of IRAK4 kinase activity: 100 uM of each inhibitor, 12.5 uM ATP, relative activity to DMSO (FIG. 15); for IRAK4 kinase inhibition: at increasing concentration (FIG. 16B)
T1 sequence (Q9NWZ3 1-460): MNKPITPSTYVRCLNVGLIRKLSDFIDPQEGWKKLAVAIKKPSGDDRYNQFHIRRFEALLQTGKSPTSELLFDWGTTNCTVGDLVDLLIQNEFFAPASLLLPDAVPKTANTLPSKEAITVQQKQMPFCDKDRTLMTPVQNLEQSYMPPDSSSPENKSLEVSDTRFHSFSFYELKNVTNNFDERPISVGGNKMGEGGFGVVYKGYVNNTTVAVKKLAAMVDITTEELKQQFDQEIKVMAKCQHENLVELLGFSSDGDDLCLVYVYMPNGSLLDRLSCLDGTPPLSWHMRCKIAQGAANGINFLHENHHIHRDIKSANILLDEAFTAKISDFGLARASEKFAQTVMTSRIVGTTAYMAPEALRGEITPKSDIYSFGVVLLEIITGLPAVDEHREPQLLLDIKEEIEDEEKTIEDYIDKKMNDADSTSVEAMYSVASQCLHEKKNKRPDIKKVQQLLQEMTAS
Protocol: FIG. 15. Inhibition of IRAK4 kinase activity by NU's IRAK4 kinase inhibitors. 10 ng IRAK4, 12.5 uM ATP and 500 ng MBP (substrate) were used in the IRAK4 kinase assay. 100 uM of each inhibitor were used individual in the assay and the reaction product ADP was detected by the ADP-GLO assay. Relative activity to DMSO is shown.
(§2) FIG. 16. Development of novel compounds (NUCC0200618 and NUCC0200554) that stabilize the wild-type MLL protein and slow leukemic cell growth through IRAK4 inhibition. A) Western blotting for MLL protein levels in cells treated with the indicated compounds designed and synthesized at Northwestern. Protein stabilization is observed to increase by 6 hours of treatment. B) Luciferase-based IRAK4 kinase assays (Promega) with the indicated doses of the new compounds. C) Cell viability counts after 3 days of treatment with the indicated doses of the new compounds.
The newly synthesized compounds were tested in an IRAK4 kinase inhibition assay as follows. In a 10 μl reaction, 10 ng Human IRAK4, 12.5 μM ATP, 500 ng dephosphorylated MBP (EMD Millipore), and different IRAK inhibitors were used in 1× kinase buffer (60 mM HEPES-NaOH, pH 7.5, 3 mM MgCl2, 3 mM MnCl2, 1.2 mM DTT, 0.1% BSA) at room temperature for 45 minutes. The ADP formed from the kinase reaction was measured by the ADP-Glo™ Kinase Assay (Cat.#V9101) and the luminescence was measured with a Tecan Infinite M1000 plate reader.

wild-type MLL protein = assay: MLL stabilization assay (western blotting) with new compounds; format: cell-based; conditions: western blotting for MLL protein levels (FIG. 16A)
Protocol: as §2
The newly synthesized compound NUCC0200554 (Compound 16 of Example 2) and compound NUCC0200618 (Compound 21 of Example 2) were further tested in MLL stabilization assay, in an IRAK4 kinase activity as described above, and in a SEM cell proliferation assay as follows. SEM (ACC-546) leukemia cells were maintained in Iscove's Modified Dulbecco's Medium (IMDM) with 10% FBS. Viable SEM cells were seeded at 0.2 million/ml, and treated with different concentrations of inhibitors at the indicated concentrations for three days. Viable cells were monitored by trypan blue exclusion staining and counted using a Vi-CELL XR cell counter. Data are represented as Mean±SD (n=3).

SMILES | MLL protein levels (MLL N320) (endogenous MLL protein) | MLL protein levels (MLL N320) (endogenous MLL protein; listed as IRAK1/4 inhibitor I) | MLL-UBE2O interaction (MLL-UBE2O interaction) | genes downregulated in both REH and SEM cells (SEM and REH cells) [genes] | genes upregulated in both REH and SEM cells (SEM and REH cells) [genes] | REH cell proliferation (REH cells) | mice that still did not develop MLL-AF9 leukemia as of day 55 (MLL-AF9 leukemia) | genome-wide MLL occupancy (MLL occupancy; HEK293 cells, 6,250 MLL peaks) | MLL occupancy at MLL target genes HOXA, HOXC, FOXC1 (MLL occupancy; HEK293 cells, 24 hr, D2M7U and NT86 antibodies) | effect of IRAK1/4 inhibitor alone (MDS and T-ALL cells) | sensitization to BCL2 inhibitor treatment (MDS and T-ALL cells) | PCA plot grouping of RNA-seq profile (SEM cells; 5 uM) | PCA plot grouping of RNA-seq profile (SEM cells; 10 uM) | Inhibition of IRAK4 kinase activity (Human IRAK4) | IRAK4 kinase inhibition (Human IRAK4) | MLL stabilization (wild-type MLL protein)
O=C(Nc1nc2ccccc2n1CCN1CCOCC1)c1cccc([N+](=O)[O-])c1 [IRAK1/4 inhibitor] | stabilizes endogenous MLL protein; also recorded: stabilizes MLL protein from proteasomal degradation in a dose-dependent manner | increased levels of MLL protein in a time- and dose-dependent manner | substantially decreased; also recorded: decreases MLL-UBE2O interaction | 238 | 186 | no effect | eight of ten | significant increases in MLL occupancy; also recorded: MLL occupancy is significantly increased; also recorded: general increase in MLL occupancy | enhanced MLL occupancy; also recorded: increases MLL occupancy at HOXA and HOXC loci; also recorded: increased MLL occupancy | does not substantially impair these cells | sensitize a subset of MDS and T-ALL cells | – | – | – | – | –
O=C(Nc1ncc(-c2cccc(O)c2)[nH]1)c1ccccc1 [NUCC0200618, N-(5-(3-hydroxyphenyl)-1H-imidazol-2-yl)benzamide] | – | – | – | – | – | – | – | – | – | – | – | very similar profiles | group together | inhibit IRAK4 kinase activity | inhibit IRAK4 kinase | stabilize MLL
Nc1cccc(-c2cnc(NC(=O)c3cccc(Cl)c3)[nH]2)c1 [NUCC0200554, N-(5-(3-aminophenyl)-1H-imidazol-2-yl)-3-chlorobenzamide] | – | – | – | – | – | – | – | – | – | – | – | – | very similar profiles | inhibit IRAK4 kinase activity | inhibit IRAK4 kinase | stabilize MLL
